Data published in patent US20100267561A1, “HERBICIDAL PYRIDAZINONE DERIVATIVES” (priority 2007, published 2010).

How the values were obtained:
Experiment in all cases: Test B pre-/postemergence plant response
Format in all cases: in vivo
[1] = system: downy bromegrass (Bromus tectorum)
From the text: (§1) Seeds of plant species selected from blackgrass (Alopecurus myosuroides), downy bromegrass (Bromus tectorum), green foxtail (Setaria viridis), Italian ryegrass (Lolium multiflorum), wheat (Triticum aestivum), wild oat (Avena fatua), catchweed bedstraw (Galium aparine), bermudagrass (Cynodon dactylon), surinam grass (Brachiaria decumbens), cocklebur (Xanthium strumarium), corn (Zea mays), large crabgrass (Digitaria sanguinalis), woolly cupgrass (Eriochloa villosa), giant foxtail (Setaria faberii), goosegrass (Eleusine indica), johnsongrass (Sorghum halepense), kochia (Kochia scoparia), lambsquarters (Chenopodium album), morningglory (Ipomoea coccinea), eastern black (E.B.) nightshade (Solanum ptycanthum), yellow nutsedge (Cyperus esculentus), pigweed (Amaranthus retroflexus), common ragweed (Ambrosia elation), Russian thistle (Salsola iberica), soybean (Glycine max), common (oilseed) sunflower (Helianthus annuus), and velvetleaf (Abutilon theophrasti) were planted and treated preemergence with test chemicals formulated in a non-phytotoxic solvent mixture which included a surfactant.
(§2) At the same time, plants selected from these crop and weed species and also winter barley (Hordeum vulgare), canarygrass (Phalaris minor), chickweed (Stellaria media) and windgrass (Apera spica-venti) were treated with postemergence applications of some of the test chemicals formulated in the same manner. Plants ranged in height from 2 to 18 cm (1- to 4-leaf stage) for postemergence treatments.
(§3) Plant species in the flooded paddy test consisted of rice (Oryza sativa), umbrella sedge (Cyperus difformis), ducksalad (Heteranthera limosa) and barnyardgrass (Echinochloa crus-galli) grown to the 2-leaf stage for testing. At time of treatment, test pots were flooded to 3 cm above the soil surface, treated by application of test compounds directly to the paddy water, and then maintained at that water depth for the duration of the test. Treated plants and controls were maintained in a greenhouse for 13 to 15 days, after which time all species were compared to controls and visually evaluated. Plant response ratings, summarized in Table B, are based on a scale of 0 to 100 where 0 is no effect and 100 is complete control. A dash (-) response means no test result.

[2] = system: yellow nutsedge (Cyperus esculentus)
From the text: as §1, §2, §3

[3] = system: green foxtail (Setaria viridis)
From the text: as §1, §2, §3

[4] = system: eastern black (E.B.) nightshade (Solanum ptycanthum); conditions: Preemergence
From the text: as §1, §2, §3

corn (Zea mays) = system: corn (Zea mays)
From the text: as §1, §2, §3

[5] = system: woolly cupgrass (Eriochloa villosa)
From the text: as §1, §2, §3

[6] = system: common (oilseed) sunflower (Helianthus annuus); conditions: Preemergence
From the text: as §1, §2, §3

[7] = system: common ragweed (Ambrosia elation)
From the text: as §1, §2, §3

[8] = system: wheat (Triticum aestivum)
From the text: as §1, §2, §3

[9] = system: blackgrass (Alopecurus myosuroides)
From the text: as §1, §2, §3

[10] = system: surinam grass (Brachiaria decumbens)
From the text: as §1, §2, §3

wild oat (Avena fatua) = system: wild oat (Avena fatua)
From the text: as §1, §2, §3

[11] = system: Russian thistle (Salsola iberica); conditions: Preemergence
From the text: as §1, §2, §3

[12] = system: cocklebur (Xanthium strumarium)
From the text: as §1, §2, §3

[13] = Postemergence, 31 g ai/ha, scale 0 to 100, 0 no effect, 100 complete control
[14] = Postemergence, 62 g ai/ha, scale 0 to 100
[15] = Postemergence, 125 g ai/ha, scale 0 to 100
[16] = Postemergence, 250 g ai/ha, scale 0 to 100
[17] = Preemergence, 31 g ai/ha, 0 to 100 scale, 0 no effect, 100 complete control
[18] = Preemergence, 62 g ai/ha, scale 0 to 100
[19] = Preemergence, 125 g ai/ha, scale 0 to 100
[20] = Preemergence, 250 g ai/ha, scale 0 to 100
[21] = 31 g ai/ha, 0 to 100 scale, 0 no effect, 100 complete control

CCc1cc(-c2ccc(C(F)(F)F)cc2)nn1-c1c(O)c(C)nn(C)c1=O [Compound 16]
Plant response rating, Bromegrass, Downy [1, 13]: 60
Plant response rating, Bromegrass, Downy [1, 14]: 70
Plant response rating, Bromegrass, Downy [1, 15]: 90
Plant response rating, Bromegrass, Downy [1, 16]: 100
Plant response rating, Bromegrass, Downy [1, 17]: 90
Plant response rating, Bromegrass, Downy [1, 18]: 100
Plant response rating, Bromegrass, Downy [1, 19]: 100
Plant response rating, Bromegrass, Downy ([1]; Preemergence, 250 g ai/ha, scale 0 to 100 (0 no effect, 100 complete control)): 100
Plant response rating, Nutsedge, Yellow [2, 13]: 0
Plant response rating, Nutsedge, Yellow [2, 14]: 0
Plant response rating, Nutsedge, Yellow [2, 15]: 0
Plant response rating, Nutsedge, Yellow [2, 16]: 0
Plant response rating, Nutsedge, Yellow [2, 17]: 0
Plant response rating, Nutsedge, Yellow [2, 18]: 0
Plant response rating, Nutsedge, Yellow [2, 19]: 0
Plant response rating, Nutsedge, Yellow [2, 20]: 20
Plant response rating, Foxtail, Green [3, 13]: 95
Plant response rating, Foxtail, Green [3, 14]: 98
Plant response rating, Foxtail, Green [3, 15]: 100
Plant response rating, Foxtail, Green [3, 16]: 100
Plant response rating, Foxtail, Green [3, 17]: 100
Plant response rating, Foxtail, Green [3, 18]: 100
Plant response rating, Foxtail, Green [3, 19]: 100
Plant response rating, Foxtail, Green [3, 20]: 100
Plant response rating, Nightshade, E. B. [4, 21]: 0
Plant response rating, Nightshade, E. B. ([4]; 62 g ai/ha, scale 0 to 100): 0
Plant response rating, Nightshade, E. B. ([4]; 125 g ai/ha, scale 0 to 100): 0
Plant response rating, Nightshade, E. B. ([4]; 250 g ai/ha, scale 0 to 100): 0
Plant response rating, Corn (corn (Zea mays); [13]): 98
Plant response rating, Corn (corn (Zea mays); [14]): 98
Plant response rating, Corn (corn (Zea mays); [15]): 100
Plant response rating, Corn (corn (Zea mays); [16]): 100
Plant response rating, Corn (corn (Zea mays); [17]): 0
Plant response rating, Corn (corn (Zea mays); [18]): 100
Plant response rating, Corn (corn (Zea mays); [19]): 100
Plant response rating, Corn (corn (Zea mays); [20]): 100
Plant response rating, Cupgrass, Woolly [5, 13]: 80
Plant response rating, Cupgrass, Woolly [5, 14]: 95
Plant response rating, Cupgrass, Woolly [5, 15]: 100
Plant response rating, Cupgrass, Woolly [5, 16]: 100
Plant response rating, Cupgrass, Woolly [5, 17]: 0
Plant response rating, Cupgrass, Woolly [5, 18]: 25
Plant response rating, Cupgrass, Woolly [5, 19]: 70
Plant response rating, Cupgrass, Woolly [5, 20]: 95
Plant response rating, Sunflower [6, 21]: 0
Plant response rating, Sunflower ([6]; 62 g ai/ha, scale 0 to 100): 0
Plant response rating, Sunflower ([6]; 125 g ai/ha, scale 0 to 100): 0
Plant response rating, Sunflower ([6]; 250 g ai/ha, scale 0 to 100): 0
Plant response rating, Ragweed [7, 13]: 0
Plant response rating, Ragweed [7, 14]: 0
Plant response rating, Ragweed [7, 15]: 0
Plant response rating, Ragweed [7, 16]: 0
Plant response rating, Ragweed [7, 17]: 0
Plant response rating, Ragweed [7, 18]: 0
Plant response rating, Ragweed [7, 19]: 0
Plant response rating, Ragweed [7, 20]: 0
Plant response rating, Wheat [8, 13]: 95
Plant response rating, Wheat [8, 14]: 98
Plant response rating, Wheat [8, 15]: 100
Plant response rating, Wheat [8, 16]: 100
Plant response rating, Wheat [8, 17]: 15
Plant response rating, Wheat [8, 18]: 90
Plant response rating, Wheat [8, 19]: 98
Plant response rating, Wheat [8, 20]: 100
Blackgrass plant response rating ([9]; 250 g ai/ha, preemergence, 0-100 scale): 100
Plant response rating, Blackgrass [9, 13]: 98
Plant response rating, Blackgrass [9, 14]: 100
Plant response rating, Blackgrass [9, 15]: 100
Plant response rating, Blackgrass [9, 16]: 100
Plant response rating, Blackgrass [9, 17]: 100
Plant response rating, Blackgrass [9, 18]: 100
Plant response rating, Blackgrass [9, 19]: 100
Plant response rating, Surinam Grass [10, 13]: 90
Plant response rating, Surinam Grass [10, 14]: 100
Plant response rating, Surinam Grass [10, 15]: 100
Plant response rating, Surinam Grass [10, 16]: 100
Plant response rating, Surinam Grass [10, 17]: 45
Plant response rating, Surinam Grass [10, 18]: 55
Plant response rating, Surinam Grass [10, 19]: 95
Plant response rating, Surinam Grass [10, 20]: 100
Plant response rating, Oat, Wild (wild oat (Avena fatua); [13]): 95
Plant response rating, Oat, Wild (wild oat (Avena fatua); [14]): 100
Plant response rating, Oat, Wild (wild oat (Avena fatua); [15]): 100
Plant response rating, Oat, Wild (wild oat (Avena fatua); [16]): 100
Plant response rating, Oat, Wild (wild oat (Avena fatua); [17]): 90
Plant response rating, Oat, Wild (wild oat (Avena fatua); [18]): 95
Plant response rating, Oat, Wild (wild oat (Avena fatua); [19]): 98
Plant response rating, Oat, Wild (wild oat (Avena fatua); [20]): 100
Plant response rating, Russian Thistle [11, 21]: 0
Plant response rating, Russian Thistle ([11]; 62 g ai/ha, scale 0 to 100): 0
Plant response rating, Russian Thistle ([11]; 125 g ai/ha, scale 0 to 100): 0
Plant response rating, Russian Thistle ([11]; 250 g ai/ha, scale 0 to 100): 0
Plant response rating, Cocklebur [12, 13]: 0
Plant response rating, Cocklebur [12, 14]: 0
Plant response rating, Cocklebur [12, 15]: 0
Plant response rating, Cocklebur [12, 16]: 0
Plant response rating, Cocklebur [12, 17]: 0
Plant response rating, Cocklebur [12, 18]: 0
Plant response rating, Cocklebur [12, 19]: 0
Plant response rating, Cocklebur [12, 20]: 0
